Results on twelve molecules are retold here after patent US10214681B2, “Method for treating a subterranean formation” (Schlumberger Technology Corporation, priority 2015, dated 2019).

Holding throughout (type): biochemical
The test system of assay [1] is cellulase. The assay can be described thus: Viscosity of guar fluid with cellulase and deactivator at 22° C. (Examples 3-7). Particulars: 200 ppm cellulase; for degradation of the guar: 22° C. (FIG. 4). On the procedure:
(§1) The following example formulations were prepared by adding a desired amount of cellulase and then a deactivator to water. The polymer was hydrated in the mixed water with a Waring blender mixing at 1000-3000 rpm for 15 mins.
The viscosities of Formulations 1-6 were measured immediately after mixing. To measure the viscosity of the solutions, 12 mL samples were loaded into a rheometer cup in a Bohlin rheometer with a C25 configuration.
The viscosities of Formulations 1-4 were measured immediately after mixing. To measure the viscosity of the solutions, 12 mL samples were loaded into a rheometer cup in a Bohlin rheometer with a C25 configuration.
The viscosities of Formulations 1-5 were measured immediately after mixing. To measure the viscosity of the solutions, 12 mL samples were loaded into a rheometer cup in a Bohlin rheometer with a C25 configuration.

The subject of assay [2] is cellulase. In words: Viscosity of guar solution with cellulase and deactivator over time at 50° C. and 80° C. (Example 1). Particulars: 200 ppm cellulase, 3.6 g/L guar. The procedure:
as §1
Formulation 3 was prepared by adding 200 ppm cellulase and 0.6 g/L of 1,5-dihydroxynaphthalene from Sigma Aldrich to tap water. Then 3.6 g/L guar was added to the fluid.
Formulation 4 was prepared by adding 200 ppm cellulase and 0.24 g/L of 1,5-dihydroxynaphthalene from Sigma Aldrich to tap water. Then 3.6 g/L guar was added to the fluid.
To measure the viscosity of the solutions, 12 mL samples were loaded into a rheometer cup in a Bohlin rheometer with a C25 configuration. The rheology tests were performed at a shear rate of 10 s^−1 and temperatures of 50° C. and 80° C., the results of which are shown in FIG. 1 and FIG. 2, respectively.

Assay [3] has as its system cellulase. In words: Viscosity of xanthan fluid with cellulase and deactivator at 22° C. (Example 8). To be noted: 0.6 g/L deactivator, 200 ppm cellulase, 3.6 g/L xanthan. On the procedure:
as §1
Formulation 3 was prepared by adding 200 ppm cellulase, 0.6 g/L of 1,5-dihydroxynaphthalene, and 3.6 g/L xanthan to tap water.
(§2) The viscosities of Formulations 1-3 were measured immediately after mixing. To measure the viscosity of the solutions, 12 mL samples were loaded into a rheometer cup in a Bohlin rheometer with a C25 configuration.

Assay [4] relates to cellulase. The assay can be described thus: Viscosity of carboxymethyl cellulose fluid with cellulase and deactivator at 22° C. (Example 9). To be noted: 0.6 g/L deactivator, 200 ppm cellulase, 3.6 g/L carboxymethyl cellulose. On the procedure: as §1
Formulation 3 was prepared by adding 200 ppm cellulase, 0.6 g/L of 1,5-dihydroxynaphthalene, and 3.6 g/L carboxymethyl cellulose to tap water.
as §2

The subject of assay [5] is bacterial and/or fungal cells. In words: Viscosity of guar in water containing 11,000,000 CFU bacterial and/or fungal cells (Example 2). Particulars: 0.4 g/L deactivator, 3.6 g/L guar. The procedure:
Formulation 2 was prepared by adding 3.6 g/L guar to water containing 11,000,000 CFU bacterial and/or fungal cells.
Formulation 3 was prepared by adding 0.4 g/L of tannic acid to Formulation 2.
as §2

Regarding `COc1ccccc1O` [guaiacol], in the assay with cellulase [1] (8 mL/L deactivator, 6 g/L guar), the “degradation of the guar” value was “impeded”. For the same molecule, the “viscosity compared with Formulation 1 (no cellulase)” value in the assay with cellulase [1] (8 mL/L deactivator, 6 g/L guar, shear rate 1, 10, 100 s^-1, 22° C. (FIG. 4)) is given as “similar”.

Consider `O=C(O)c1cc(O)c(O)c(O)c1` [gallic acid], for which the “degradation of the guar” value with cellulase [1] (8 mL/L gallic acid, 3.6 g/L guar) is listed as “impeded”. For the same molecule, in the assay on cellulase [1] (8 mL/L gallic acid, 3.6 g/L guar, shear rate 1, 10, 100 s^-1, 22° C. (FIG. 4)), the “viscosity compared with Formulation 1 (no cellulase)” value was “similar”.

Turning to `Oc1cccc2cccc(O)c12` [1,8-dihydroxynaphthalene], the “degradation of the biomaterial” value with cellulase [1] (0.12 g/L deactivator, 3.6 g/L guar, 22° C. (FIG. 6)) was “impeded”. Besides, in the assay on cellulase [1] (0.12 g/L deactivator, 3.6 g/L guar, shear rate 1, 10, 100 s^-1, 22° C. (FIG. 6)), the “viscosity compared with Formulation 1 (no cellulase)” value is recorded as “similar”.

Turning to `Oc1ccc2c(c1)OCO2` [sesamol], the “degradation of the biomaterial” value in the assay on cellulase [1] (0.36 g/L deactivator, 3.6 g/L guar, 22° C. (FIG. 7)) was “impeded”. In the assay with cellulase [1] (0.36 g/L deactivator, 3.6 g/L guar, shear rate 1, 10, 100 s^-1, 22° C. (FIG. 7)), the “viscosity compared with Formulation 1 (no cellulase)” value is on record as “similar”.

`Nc1cccc2c(O)cccc12` [5-amino-1-naphthol]: in the assay with cellulase [1] (0.96 g/L deactivator, 3.6 g/L guar, 22° C. (FIG. 7)), the “degradation of the biomaterial” value is “impeded”. Moreover, in the assay on cellulase [1] (0.96 g/L deactivator, 3.6 g/L guar, shear rate 1, 10, 100 s^-1, 22° C. (FIG. 7)), the “viscosity compared with Formulation 1 (no cellulase)” value is recorded as “similar”.

As to `Oc1cccc2c(O)cccc12` [1,5-dihydroxynaphthalene], the “degradation rate of the cellulase enzymes” value in the assay on cellulase [2] (0.6 g/L deactivator, tap water, shear rate 10 s^-1, 50° C. and 80° C. (FIG. 1, 2)) is “reduced”. In addition, the “dependence of viscosity reduction on deactivator concentration” value in the assay on cellulase [2] (0.6 g/L vs 0.24 g/L deactivator, 50° C. (FIG. 1)) is “the slower the viscosity was reduced”. For the same molecule, the “viscosity compared with the formulation without deactivator” value in the assay with cellulase [2] (50° C., shear rate 10 s^-1 (FIG. 1)) is listed as “higher”; in the assay with cellulase [2] (80° C., shear rate 10 s^-1 (FIG. 2)) it was “higher”. Besides, the “degradation of the biomaterial” value is “impeded” in the assay on cellulase [1] (0.6 g/L deactivator, 3.6 g/L guar, 22° C. (FIG. 6)); “impeded” in the assay with cellulase [3] (22° C. (FIG. 9)); “impeded” in the assay on cellulase [4] (22° C. (FIG. 10)). Besides, the “viscosity compared with Formulation 1 (no cellulase)” value in the assay with cellulase [1] (0.6 g/L deactivator, 3.6 g/L guar, shear rate 1, 10, 100 s^-1, 22° C. (FIG. 6)) is reported as “similar”; in the assay on cellulase [3] (shear rate 1, 10, 100 s^-1, 22° C. (FIG. 9)), “similar”; in the assay with cellulase [4] (shear rate 1, 10, 100 s^-1, 22° C. (FIG. 10)) it was “similar”.

Regarding `O=C(O)c1ccccc1O` [salicylic acid], the “degradation of the guar” value in the assay with cellulase [1] (8 mL/L salicylic acid, 3.6 g/L guar) was “impeded”. Besides, the “viscosity compared with Formulation 1 (no cellulase)” value in the assay on cellulase [1] (8 mL/L salicylic acid, 3.6 g/L guar, shear rate 1, 10, 100 s^-1, 22° C. (FIG. 4)) was “similar”.

For `COc1cc(OC)cc(OC)c1` [1,3,5-trimethoxybenzene], the “degradation of the biomaterial” value with cellulase [1] (0.6 g/L 1,3,5-trimethoxybenzene, 3.6 g/L guar, 22° C. (FIG. 8)) is on record as “impeded”. Further, the “viscosity compared with Formulation 1 (no cellulase)” value in the assay on cellulase [1] (0.6 g/L 1,3,5-trimethoxybenzene, 3.6 g/L guar, shear rate 1, 10, 100 s^-1, 22° C. (FIG. 8)) was “similar”.

For `Oc1cc2ccccc2cc1O` [2,3-dihydroxynaphthalene], in the assay on cellulase [1] (0.36 g/L deactivator, 3.6 g/L guar, 22° C. (FIG. 6)), the “degradation of the biomaterial” value is “impeded”. Also, the “viscosity compared with Formulation 1 (no cellulase)” value with cellulase [1] (0.36 g/L deactivator, 3.6 g/L guar, shear rate 1, 10, 100 s^-1, 22° C. (FIG. 6)) is given as “similar”.

As to `O=C(OC[C@H]1O[C@@H](OC(=O)c2cc(O)c(O)c(OC(=O)c3cc(O)c(O)c(O)c3)c2)[C@H](OC(=O)c2cc(O)c(O)c(OC(=O)c3cc(O)c(O)c(O)c3)c2)[C@@H](OC(=O)c2cc(O)c(O)c(OC(=O)c3cc(O)c(O)c(O)c3)c2)[C@@H]1OC(=O)c1cc(O)c(O)c(OC(=O)c2cc(O)c(O)c(O)c2)c1)c1cc(O)c(O)c(OC(=O)c2cc(O)c(O)c(O)c2)c1` [tannic acid], in assay [5] (water with 11,000,000 CFU bacterial and/or fungal cells, 22° C. (FIG. 3)), the “degradation of the guar biomaterial by the enzyme” value is “inhibited”. The “viscosity compared with Formulation 1 (guar in tap water)” value in assay [5] (water with 11,000,000 CFU cells, shear rate 1, 10, 100 s^-1, 22° C. (FIG. 3)) was “similar”. In the assay with cellulase [1] (0.4 g/L deactivator, 3.6 g/L guar, 22° C. (FIG. 5)), the “degradation of the biomaterial by the cellulase enzymes” value is reported as “impeded”. Besides, in the assay on cellulase [1] (0.4 g/L deactivator, 3.6 g/L guar, shear rate 1, 10, 100 s^-1, 22° C. (FIG. 5)), the “viscosity compared with Formulation 1 (no cellulase)” value is reported as “similar”.

As for `COc1cc(C(=O)O)ccc1O` [vanillic acid], in the assay on cellulase [1] (0.96 g/L deactivator, 3.6 g/L guar), the “degradation of the guar” value is given as “impeded”. In the assay with cellulase [1] (0.96 g/L deactivator, 3.6 g/L guar, shear rate 1, 10, 100 s^-1, 22° C. (FIG. 4)), the “viscosity compared with Formulation 1 (no cellulase)” value is reported as “similar”.

With `COc1cccc(OC)c1OC` [1,2,3-trimethoxybenzene], the “degradation of the biomaterial” value with cellulase [1] (0.6 g/L 1,2,3-trimethoxybenzene, 3.6 g/L guar, 22° C. (FIG. 8)) is on record as “impeded”. Further, the “viscosity compared with Formulation 1 (no cellulase)” value in the assay with cellulase [1] (0.6 g/L 1,2,3-trimethoxybenzene, 3.6 g/L guar, shear rate 1, 10, 100 s^-1, 22° C. (FIG. 8)) is given as “similar”.
